# Laboratory results from patent US8153601B2, “Azithromycin-containing aqueous pharmaceutical composition and a method for the preparation of the same” (Wakamoto Pharmaceutical Co., Ltd., priority 2004, dated 2012).
# Assay: Stability of azithromycin during the preparation steps (survival rate of AZT after preparation, HPLC)
# Assay type: physicochemical
# Details: pH of the azithromycin-containing aqueous solution less than 4.0
# Experimental: Stability of the azithromycin-containing aqueous pharmaceutical compositions prepared in the above Examples and Comparative Examples were evaluated in terms of azithromycin concentration in the composition.
# The compositions (Examples 1 to 8 and Comparative Examples 1 and 2) were packed in glass vial, sealed with a lid, and stored at 60° C. for one and two weeks. Then, azithromycin concentration in the composition just after packed in the glass vial and after the storage at 60° C. was determined by HPLC. Stability was evaluated as follows.
# First, the azithromycin content added was compared with the azithromycin content in the composition just after packed in the glass vial to evaluate stability of azithromycin during the preparation steps. This is expressed by a survival rate of AZT after preparation wherein AZT means azithromycin.
# The same procedures in Test Example 1 were repeated to evaluate stability of the compositions of Examples 9 to 12 and Comparative Example 3.
# The similar procedures to Test Example 1 were repeated to evaluate stability of the compositions of Examples 18 to 20.
smiles,measurement,value
CC[C@H]1OC(=O)[C@H](C)[C@@H](O[C@H]2C[C@@](C)(OC)[C@@H](O)[C@H](C)O2)[C@H](C)[C@@H](O[C@@H]2O[C@H](C)C[C@H](N(C)C)[C@H]2O)[C@](C)(O)C[C@@H](C)CN(C)[C@H](C)[C@@H](O)[C@]1(C)O [azithromycin],decomposition of azithromycin in aqueous solution,decomposed
